Test results taken from ChEMBL document CHEMBL1201862, “PubChem BioAssay data set” (2004).
Activity calls are given as the source filed them.

Assays:
[1] = biological target: T1, Polyadenylate-binding protein 1 (Homo sapiens, UniProt P11940); assay: MLLE binding blockers, Cy5 peptide tracer – biochemical, fluorescence polarization, Cy5-PAM2 peptide, secondary, miRNA deadenylation inhibitor project, dose response (AID 602260); type: functional; conditions: read-out: IC50_Mean
[2] = biological target: T1, Polyadenylate-binding protein 1; assay: MLLE domain peptide-binding blockers, IC50 – biochemical, fluorescence polarization, FITC-PAM2 peptide, dose response (AID 602259); type: functional; conditions: read-out: IC50_Mean
[3] = biological target: T2, Leucine aminopeptidase (Plasmodium falciparum 3D7, UniProt Q8IL11); assay: P. falciparum M17LAP inhibitors, primary screen, biochemical, fluorogenic H-Leu-NHMec substrate, 1536-well (AID 1619); type: functional
T2 sequence (Q8IL11 whole entry): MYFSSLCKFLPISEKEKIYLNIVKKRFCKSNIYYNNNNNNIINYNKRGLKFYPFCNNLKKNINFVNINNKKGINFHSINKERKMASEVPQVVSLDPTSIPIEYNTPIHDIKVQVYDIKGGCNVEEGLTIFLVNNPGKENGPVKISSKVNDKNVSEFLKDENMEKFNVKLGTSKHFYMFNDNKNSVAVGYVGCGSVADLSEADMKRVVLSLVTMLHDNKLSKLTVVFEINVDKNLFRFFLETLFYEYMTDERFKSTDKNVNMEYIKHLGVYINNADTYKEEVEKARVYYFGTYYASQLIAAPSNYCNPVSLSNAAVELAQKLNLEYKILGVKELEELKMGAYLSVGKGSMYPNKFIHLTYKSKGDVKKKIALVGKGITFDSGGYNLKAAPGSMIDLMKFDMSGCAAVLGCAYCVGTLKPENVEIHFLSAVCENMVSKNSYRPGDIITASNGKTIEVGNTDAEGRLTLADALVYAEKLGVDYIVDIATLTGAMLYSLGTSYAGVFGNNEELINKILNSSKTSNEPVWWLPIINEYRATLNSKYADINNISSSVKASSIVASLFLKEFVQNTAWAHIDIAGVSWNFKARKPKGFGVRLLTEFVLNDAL

[4] = biological target: T3, Replicative DNA helicase DnaB (Mycobacterium tuberculosis, UniProt P9WMR3); assay: DnaB intein splicing inhibitors, dose response, biochemical, cell-free fluorescence (AID 449749); type: functional
T3 sequence (P9WMR3 whole entry): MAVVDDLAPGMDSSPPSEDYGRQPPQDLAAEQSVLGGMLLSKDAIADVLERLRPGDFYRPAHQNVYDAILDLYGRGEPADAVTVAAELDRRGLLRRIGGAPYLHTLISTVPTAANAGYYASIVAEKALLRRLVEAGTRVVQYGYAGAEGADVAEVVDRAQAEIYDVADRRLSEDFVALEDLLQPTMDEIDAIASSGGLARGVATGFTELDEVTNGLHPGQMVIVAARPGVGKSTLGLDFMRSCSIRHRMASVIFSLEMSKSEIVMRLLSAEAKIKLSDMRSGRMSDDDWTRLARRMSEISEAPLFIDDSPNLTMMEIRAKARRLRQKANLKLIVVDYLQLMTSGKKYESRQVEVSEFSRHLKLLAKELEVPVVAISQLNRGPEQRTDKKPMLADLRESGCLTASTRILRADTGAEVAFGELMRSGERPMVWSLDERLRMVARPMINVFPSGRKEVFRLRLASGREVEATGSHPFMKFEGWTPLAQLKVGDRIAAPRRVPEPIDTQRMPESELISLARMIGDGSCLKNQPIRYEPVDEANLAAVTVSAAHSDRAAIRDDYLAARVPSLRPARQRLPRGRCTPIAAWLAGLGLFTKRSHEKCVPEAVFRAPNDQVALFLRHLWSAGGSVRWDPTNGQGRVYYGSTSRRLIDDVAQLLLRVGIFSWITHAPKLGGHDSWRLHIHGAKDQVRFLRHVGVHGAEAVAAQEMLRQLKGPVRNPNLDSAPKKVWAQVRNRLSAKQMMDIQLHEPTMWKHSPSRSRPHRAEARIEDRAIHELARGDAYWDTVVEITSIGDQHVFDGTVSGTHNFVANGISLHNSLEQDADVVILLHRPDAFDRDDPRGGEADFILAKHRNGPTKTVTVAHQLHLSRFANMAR

[5] = biological target: T4, Protein RecA (Mycobacterium tuberculosis, UniProt P9WHJ3); assay: Fluorescence Cell-Free Homogeneous Dose Retest to Identify Inhibitors of RecA-Intein Splicing Activity. [Related pubchem assays (depositor defined):AID2097, AID2223, AID489010, AID492950]; type: functional
T4 sequence (P9WHJ3 whole entry): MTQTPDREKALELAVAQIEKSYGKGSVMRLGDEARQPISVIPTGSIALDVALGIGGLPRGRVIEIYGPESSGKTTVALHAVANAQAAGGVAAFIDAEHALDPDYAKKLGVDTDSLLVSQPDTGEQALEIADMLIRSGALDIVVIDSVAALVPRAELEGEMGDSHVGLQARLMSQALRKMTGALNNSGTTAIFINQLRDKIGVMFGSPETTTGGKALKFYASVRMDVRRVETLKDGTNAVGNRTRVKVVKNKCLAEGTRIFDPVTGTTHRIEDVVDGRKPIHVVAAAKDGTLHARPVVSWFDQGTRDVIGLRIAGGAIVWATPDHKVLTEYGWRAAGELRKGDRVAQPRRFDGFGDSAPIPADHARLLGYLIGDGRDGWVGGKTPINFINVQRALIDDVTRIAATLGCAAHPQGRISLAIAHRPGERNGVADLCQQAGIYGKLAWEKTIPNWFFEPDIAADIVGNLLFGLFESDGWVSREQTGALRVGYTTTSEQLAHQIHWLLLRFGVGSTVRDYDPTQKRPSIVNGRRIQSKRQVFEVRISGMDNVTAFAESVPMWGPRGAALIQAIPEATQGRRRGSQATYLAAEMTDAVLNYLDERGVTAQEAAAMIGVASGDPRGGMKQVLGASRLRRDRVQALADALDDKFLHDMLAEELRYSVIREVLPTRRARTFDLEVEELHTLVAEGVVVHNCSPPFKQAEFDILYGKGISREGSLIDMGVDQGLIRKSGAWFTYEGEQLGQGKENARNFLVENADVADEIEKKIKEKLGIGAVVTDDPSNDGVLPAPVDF

[6] = biological target: T5, RNA-binding protein pos-1 (Caenorhabditis elegans, UniProt G5EF15); assay: disruptors of C. elegans POS-1 RNA interaction – biochemical, fluorescence polarization, dose response (AID 1964);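 further: purified POS-1 fused to maltose binding protein made in E. coli; potency of compounds blocking POS-1 binding to fluorescent RNA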
T5 sequence (G5EF15 whole entry): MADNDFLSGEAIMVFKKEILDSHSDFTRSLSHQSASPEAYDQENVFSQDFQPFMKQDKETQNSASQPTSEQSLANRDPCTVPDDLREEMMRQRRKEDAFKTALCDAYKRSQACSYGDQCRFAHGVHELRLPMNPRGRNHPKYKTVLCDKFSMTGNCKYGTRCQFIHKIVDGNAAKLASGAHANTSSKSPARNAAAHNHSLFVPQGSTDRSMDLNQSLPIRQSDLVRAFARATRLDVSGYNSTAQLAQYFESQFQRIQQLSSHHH

[7] = biological target: T6, Zinc finger protein mex-5 (Caenorhabditis elegans, UniProt Q9XUB2); assay: potency of MEX-5 RNA-binding blockers – biochemical, C. elegans, fluorescence polarization, dose response (AID 1960)
T6 sequence (Q9XUB2 whole entry): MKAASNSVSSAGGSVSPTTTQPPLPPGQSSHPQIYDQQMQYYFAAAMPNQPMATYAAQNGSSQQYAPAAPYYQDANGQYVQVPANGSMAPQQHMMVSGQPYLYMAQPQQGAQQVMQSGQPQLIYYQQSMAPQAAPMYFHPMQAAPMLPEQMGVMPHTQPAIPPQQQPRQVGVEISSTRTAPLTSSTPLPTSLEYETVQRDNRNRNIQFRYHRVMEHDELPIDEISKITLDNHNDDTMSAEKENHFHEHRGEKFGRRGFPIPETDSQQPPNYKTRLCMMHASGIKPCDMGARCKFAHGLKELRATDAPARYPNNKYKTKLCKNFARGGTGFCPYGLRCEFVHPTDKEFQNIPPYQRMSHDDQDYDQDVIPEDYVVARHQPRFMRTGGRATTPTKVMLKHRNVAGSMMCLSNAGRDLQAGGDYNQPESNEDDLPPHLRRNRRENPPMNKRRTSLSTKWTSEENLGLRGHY

[8] = blockers of HIV-1 ZM109 envelope-driven cell-cell fusion – HeLa effector, CEM target cells, luciferase, cherry-pick, dose response (AID 652058); type: functional, cell-based;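 further: luciferase signal from HIV-1 Env mediated cell-cell fusion of effector and target cells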
[9] = biological target: Cytochrome P450 2C19 (Homo sapiens, UniProt P33261); assay: Cytochrome panel assay with activity outcomes. Panel member name: p450-cyp2c19 Compounds with AC50 equal or less than 10 uM are considered active; type: functional
Sequence of Cytochrome P450 2C19 (P33261 whole entry): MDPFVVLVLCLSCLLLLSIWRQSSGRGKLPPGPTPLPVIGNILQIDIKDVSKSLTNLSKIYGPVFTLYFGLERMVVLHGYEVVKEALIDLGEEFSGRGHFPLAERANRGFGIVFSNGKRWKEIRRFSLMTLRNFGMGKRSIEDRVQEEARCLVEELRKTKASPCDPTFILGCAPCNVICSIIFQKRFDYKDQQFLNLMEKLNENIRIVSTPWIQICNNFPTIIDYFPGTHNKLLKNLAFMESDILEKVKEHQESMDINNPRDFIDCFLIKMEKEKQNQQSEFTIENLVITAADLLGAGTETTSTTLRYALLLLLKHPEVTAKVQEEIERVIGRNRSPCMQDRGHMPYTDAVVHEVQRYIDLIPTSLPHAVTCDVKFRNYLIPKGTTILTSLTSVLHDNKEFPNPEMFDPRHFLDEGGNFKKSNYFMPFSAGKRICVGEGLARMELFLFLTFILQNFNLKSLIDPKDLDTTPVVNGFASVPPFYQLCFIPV

[10] = biological target: Cytochrome P450 3A4 (Homo sapiens, UniProt P08684);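 further: CYP3A4 tested as one member of a cytochrome P450 panel screen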
Sequence of Cytochrome P450 3A4 (P08684 whole entry): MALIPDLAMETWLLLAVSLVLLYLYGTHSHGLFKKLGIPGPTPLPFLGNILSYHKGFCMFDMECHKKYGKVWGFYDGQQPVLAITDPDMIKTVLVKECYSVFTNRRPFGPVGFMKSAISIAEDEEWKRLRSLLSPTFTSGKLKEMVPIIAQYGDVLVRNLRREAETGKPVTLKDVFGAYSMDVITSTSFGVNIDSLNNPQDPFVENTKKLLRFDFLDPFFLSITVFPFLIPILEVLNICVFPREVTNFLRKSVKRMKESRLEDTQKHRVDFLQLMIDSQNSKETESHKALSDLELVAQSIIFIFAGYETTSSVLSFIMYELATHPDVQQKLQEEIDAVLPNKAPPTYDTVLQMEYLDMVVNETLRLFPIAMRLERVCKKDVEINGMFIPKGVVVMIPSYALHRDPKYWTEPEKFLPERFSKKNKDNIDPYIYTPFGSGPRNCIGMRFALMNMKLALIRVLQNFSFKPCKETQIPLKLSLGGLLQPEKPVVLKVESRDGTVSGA

[11] = biological target: Cytochrome P450 2C9 (Homo sapiens, UniProt P11712)
Sequence of Cytochrome P450 2C9 (P11712 whole entry): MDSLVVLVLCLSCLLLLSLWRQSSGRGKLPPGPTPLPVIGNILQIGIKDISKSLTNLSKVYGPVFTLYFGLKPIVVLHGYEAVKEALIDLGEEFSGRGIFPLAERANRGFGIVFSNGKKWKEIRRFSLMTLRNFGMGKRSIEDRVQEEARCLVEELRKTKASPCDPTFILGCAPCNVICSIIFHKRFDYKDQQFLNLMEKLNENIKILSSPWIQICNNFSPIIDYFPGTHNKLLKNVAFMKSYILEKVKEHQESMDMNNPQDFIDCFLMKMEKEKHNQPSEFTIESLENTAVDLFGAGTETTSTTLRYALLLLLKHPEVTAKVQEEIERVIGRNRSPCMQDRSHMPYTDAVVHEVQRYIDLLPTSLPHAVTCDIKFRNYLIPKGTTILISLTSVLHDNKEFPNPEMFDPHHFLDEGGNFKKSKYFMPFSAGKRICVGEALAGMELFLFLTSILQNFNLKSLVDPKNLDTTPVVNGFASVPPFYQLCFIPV

[12] = NIH-3T3 fibroblast cytotoxicity, dose response, cytotoxicity control, cell-based, fluorescence, Alamar Blue, secondary assay (AID 2327); type: functional;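 further: NIH-3T3 mouse fibroblasts cultured with fluconazole at 8 µg/mL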
[13] = HIV-1 AD8 envelope cell-cell fusion blockers – cherry-pick, dose response (AID 652062); type: functional, cell-based;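 further: luciferase signal from cell-cell fusion driven by HIV-1 clade B AD8 Env; potency is for inhibitors of fusion seen as a drop in luminescence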
[14] = biological target: T7, Heat shock factor protein 1 (Mus musculus, UniProt P38532); assay: decrease of HSF1-responsive luciferase luminescence – cell-based, NIH3T3, dose retest, confirmation (AID 2382); type: functional;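 further: NIH3T3 fibroblasts with HSF1-driven luciferase reporter stressed by proteasome inhibitor MG132; luminescence from HSF1-driven luciferase expression after 8 hours of MG132 stress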
T7 sequence (P38532 whole entry): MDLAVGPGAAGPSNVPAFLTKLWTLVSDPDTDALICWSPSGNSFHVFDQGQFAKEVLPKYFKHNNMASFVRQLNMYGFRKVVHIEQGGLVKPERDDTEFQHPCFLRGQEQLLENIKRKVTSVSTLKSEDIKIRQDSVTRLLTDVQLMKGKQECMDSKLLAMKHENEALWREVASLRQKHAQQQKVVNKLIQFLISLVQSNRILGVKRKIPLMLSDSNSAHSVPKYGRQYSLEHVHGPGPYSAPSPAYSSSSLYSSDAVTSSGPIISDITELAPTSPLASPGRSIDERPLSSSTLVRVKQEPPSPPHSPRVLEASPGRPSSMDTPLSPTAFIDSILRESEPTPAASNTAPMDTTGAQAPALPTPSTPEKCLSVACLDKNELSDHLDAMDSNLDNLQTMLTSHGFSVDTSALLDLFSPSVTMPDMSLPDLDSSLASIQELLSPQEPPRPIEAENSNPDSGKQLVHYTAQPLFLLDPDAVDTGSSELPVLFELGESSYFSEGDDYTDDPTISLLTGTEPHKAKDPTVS

T1 sequence (P11940 whole entry, the tested form may be a part): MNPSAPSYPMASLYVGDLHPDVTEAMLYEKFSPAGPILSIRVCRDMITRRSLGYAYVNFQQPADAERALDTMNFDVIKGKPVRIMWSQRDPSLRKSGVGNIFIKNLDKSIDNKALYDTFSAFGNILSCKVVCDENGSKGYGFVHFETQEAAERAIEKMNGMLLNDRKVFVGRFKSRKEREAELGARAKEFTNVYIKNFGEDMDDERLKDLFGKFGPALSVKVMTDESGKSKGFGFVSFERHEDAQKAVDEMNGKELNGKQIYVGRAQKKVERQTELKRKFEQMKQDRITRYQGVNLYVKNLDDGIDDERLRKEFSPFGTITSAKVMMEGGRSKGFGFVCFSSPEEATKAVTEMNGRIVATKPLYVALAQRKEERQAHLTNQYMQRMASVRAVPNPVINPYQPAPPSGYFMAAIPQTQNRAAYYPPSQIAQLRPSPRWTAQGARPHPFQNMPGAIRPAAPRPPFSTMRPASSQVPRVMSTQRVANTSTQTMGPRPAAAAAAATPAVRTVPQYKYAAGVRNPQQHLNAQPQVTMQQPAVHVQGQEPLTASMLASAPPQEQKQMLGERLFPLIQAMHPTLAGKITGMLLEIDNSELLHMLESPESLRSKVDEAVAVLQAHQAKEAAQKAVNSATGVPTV

Compound | IC50 [1] | IC50 [2] | EC50 [6] | EC50 [7] | further results
O=S(=O)(NCCCSc1ccccc1)c1ccccc1F | > 66 µM (inactive) | > 66 µM (inactive) |  |  | 
CC(/C=N/NC(=O)Cc1cc(O)[nH]n1)=C\c1ccccc1 |  |  |  |  | IC50 [3]: 72.4 µM (active); AC50 [4]: 2.53 µM (active); EC50 [5]: 0.935 µM (active)
O=C(c1ccco1)N1CCN(c2ncnc3c(-c4ccc(Cl)cc4)nsc23)CC1 |  |  | > 300 µM (not active) | > 300 µM (not active) | 
CCOc1ccccc1C(=O)NCC(=O)NNC(=O)CN(C)S(=O)(=O)c1ccc(Cl)cc1 |  |  |  |  | AC50 [8]: 23.6 µM (active)
Cc1cc(O)nc(SCC(=O)Nc2ccc(C(=O)O)cc2)n1 | > 66 µM (inactive) | > 66 µM (inactive) |  |  | 
O=C(NC(=S)Nc1ccc(CN2CCOCC2)cc1)c1ccc([N+](=O)[O-])cc1 | > 66 µM (inactive) | > 66 µM (inactive) |  |  | 
Cc1nc(N=C(N)S)sc1C(=O)Nc1ccccc1 | > 66 µM (inactive) | > 66 µM (inactive) |  |  | AC50 [9]: inconclusive; AC50 [10]: 14.1 µM (inconclusive); AC50 [11]: 39.8 µM (inconclusive)
COc1ccc(C(=O)NC(=S)N2CCCc3ccccc32)cc1OC | > 66 µM (inactive) | > 66 µM (inactive) |  |  | 
CCCCC1=CC2=CC(=O)C(C)(OC(=O)CCC(=O)OC)C(=O)C2=CO1 (stereo not drawn) |  |  | 30 µM (active) | 26.6 µM (active) | 
COC(=O)c1c(N=C(S)Nc2cc(OC)c(Cl)cc2OC)sc2c1CCCCC2 | > 66 µM (inactive) | > 66 µM (inactive) |  |  | 
CC1=C(C#N)C(=O)OC(C)(C)C1 |  |  | 10.8 µM (active) | 10.1 µM (active) | 
COc1cccc(C(=O)NCc2ccc3[nH]c(C)cc3c2)c1 | > 66 µM (inactive) | > 66 µM (inactive) |  |  | 
CCOc1ccc(N/C(=C(/C(Cl)=C(Cl)Cl)[N+](=O)[O-])n2cncn2)cc1 |  |  | 46.9 µM (active) | 45.4 µM (active) | 
CCC1(c2ccccc2)NC(=O)N(CC(=O)NCc2ccc(F)cc2)C1=O (stereo not drawn) |  |  | > 300 µM (not active) | > 300 µM (not active) | 
CCCN1C(=O)/C(=C/c2ccc(C)o2)S/C1=N/c1ccc(OC)cc1 |  |  | 44.6 µM (active) | 103 µM (inconclusive) | 
C=C(C)c1cccc(C(C)(C)NC(=O)Nc2ccc(C(N)=O)cc2)c1 |  |  |  |  | EC50 [12]: > 150 µM (inactive)
C/C(=N\Nc1ccc([N+](=O)[O-])cc1[N+](=O)[O-])c1cc2c(ccc3ccccc32)oc1=O |  |  | > 300 µM (not active) | > 300 µM (not active) | 
C=CC[n+]1c(-c2ccc(OC)c(OC)c2)csc1NNC(=O)Nc1ccccc1 |  |  |  |  | AC50 [8]: 0.401 µM (active); AC50 [13]: 15.8 µM (active)
O=C(/N=C1\SC2CS(=O)(=O)CC2N1c1ccccc1)C1CC1 (stereo not drawn) |  |  | > 300 µM (not active) | > 300 µM (inconclusive) | 
NC(=O)CC(NC(=O)Cc1ccc(Cl)cc1)c1ccc(NC2CCCCCC2)c([N+](=O)[O-])c1 (stereo not drawn) |  |  | > 300 µM (not active) | > 300 µM (not active) | EC50 [14]: > 195 µM (not active)
COC(=O)c1cc(-c2ccccc2)sc1NC(=O)CN1C(=O)c2ccccc2C1=O | > 66 µM (inactive) | > 66 µM (inactive) |  |  | AC50 [10]: 31.6 µM (inconclusive)
Cc1ccc2nc(O)c(C(c3nnnn3CC3CCCO3)N3CCc4ccccc4C3)cc2c1 (stereo not drawn) | > 66 µM (inactive) | > 66 µM (inactive) |  |  | 
